# Measured values published in article PMC10458698, “Characterization of the interferences of systemic azole antifungal drugs with adrenal steroid biosynthesis using H295R cells and enzyme activity assays” (Current Research in Toxicology, 2023).
# Biological target: T1, CYP11A1 (Homo sapiens, UniProt P05108)
# T1 construct: host or cells: V79-4 cells (Chinese hamster), transient transfection, mitochondrial fraction
# T1 sequence (P05108 40-521): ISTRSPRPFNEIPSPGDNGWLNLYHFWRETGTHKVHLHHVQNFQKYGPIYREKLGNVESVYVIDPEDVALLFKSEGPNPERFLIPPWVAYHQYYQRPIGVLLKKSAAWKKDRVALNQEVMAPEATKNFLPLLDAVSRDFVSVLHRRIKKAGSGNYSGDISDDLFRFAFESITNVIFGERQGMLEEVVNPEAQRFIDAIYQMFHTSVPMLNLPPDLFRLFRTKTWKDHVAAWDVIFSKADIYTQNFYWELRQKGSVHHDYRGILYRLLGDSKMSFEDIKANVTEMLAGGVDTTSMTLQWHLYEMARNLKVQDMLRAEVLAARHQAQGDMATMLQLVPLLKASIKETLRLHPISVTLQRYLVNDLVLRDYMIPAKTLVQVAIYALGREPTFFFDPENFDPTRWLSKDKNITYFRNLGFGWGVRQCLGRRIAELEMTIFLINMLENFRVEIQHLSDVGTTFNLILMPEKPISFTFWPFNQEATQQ
# Experiment: CYP11A1 assay based on mitochondrial fraction of V79-4 cells
# Assay type: biochemical
# Conditions: 10 µM, 20S-hydroxycholesterol 2 µM, 4 h, qualitative, assay of low sensitivity
# Protocol: Mitochondria were prepared as described previously with modifications ([Frezza et al., 2007]). Briefly, V79-4 cells (3,000,000) were seeded 4 h prior to transfection with 4 µg of expression plasmid for CYP11A1 and adrenodoxin (GeneScript Piscataway, USA, clone IDs OHu18602D and OHu55929D) using polyethylemine (PEI) in a PEI/DNA ratio of 3:1 (w/w). At 4 h post-transfection, medium was changed and cells were incubated overnight. Cells were collected in ice cold phosphate buffered saline (PBS) and centrifuged at 600 × g for 10 min at 4 °C. The pellet was resuspended in ice cold isolation buffer (10 mM Tris/MOPS, pH 7.4, 1 mM EGTA/Tris, pH 7.4, 200 mM sucrose in water) and transferred to a glass potter, followed by 35 S using a 2 cm^3 glass Teflon pestle. The homogenate was centrifuged for 10 min at 600 × g and 4 °C. The supernatant was collected and centrifuged for 10 min at 7000 × g at 4 °C. The pellet was washed and resuspended in 200 μL ice cold isolation buffer. After centrifugation, the pellet containing the mitochondrial fraction was resuspended in 30 μL reaction buffer (25 mM HEPES pH 7.4, 0.1 mM DTT, 0.1 mM EDTA, 4 mM MgCl2) and the protein content was determined by the BCA assay according to the manufacturer (Pierce BCA protein assay kit, Thermo Scientific, Rockford, USA). Bovine serum albumin provided with the kit was used as reference protein and absorbance was measured using a BioTek Cytation5 Imaging Reader (Agilent BioTek).
# For the CYP11A1 activity assay, 500 µg/mL of freshly prepared mitochondrial fraction were pre-incubated on ice with reaction buffer, 1 mM NADPH and either vehicle (0.1% DMSO), 10 µM of the positive control ketoconazole ([Mast et al., 2013]) or the triazole antifungals for 10 min. The reaction was started by adding the substrate 20S-hydroxycholesterol at a final concentration of 2 µM in a reaction volume of 50 µL. After 4 h of incubation at 37 °C, the reaction was stopped by adding 50 µL methanol and shock-freezing in liquid nitrogen. Samples were stored at −80 °C until sample preparation for pregnenolone detection using an ELISA kit (Alpco, Salem, USA). Sample preparation included evaporation of samples to dryness, reconstitution in 6 µL methanol and 1:25 (v:v) dilution in water. The ELISA was performed according to the manufacturer and absorbance was measured using a BioTek Citation5 imaging reader.
row,SMILES,inhibition of CYP11A1 activity
1,C[C@@H](c1nc(-c2ccc(C#N)cc2)cs1)[C@](O)(Cn1cncn1)c1cc(F)ccc1F [isavuconazole],comparable to ketoconazole
2,CCC(C)n1ncn(-c2ccc(N3CCN(c4ccc(OCC5COC(Cn6cncn6)(c6ccc(Cl)cc6Cl)O5)cc4)CC3)cc2)c1=O (stereo not drawn) [itraconazole],very weak inhibitory activity
3,"CC[C@@H]([C@H](C)O)n1ncn(-c2ccc(N3CCN(c4ccc(OC[C@@H]5CO[C@@](Cn6cncn6)(c6ccc(F)cc6F)C5)cc4)CC3)cc2)c1=O [posaconazole, Posaconazole]",very weak inhibitory activity
